Columns and labels:
A II-infused rat model = assay: A II-infused rat model, antihypertensive action; type: in vivo, Rats; conditions: 3 mg/kg id, four hours post-administration
Experimental: In accordance with their ability to antagonize angiotensin II, the compounds of this invention show antihypertensive action in the following A II-infused rat model. Rats are anesthetized with Dial-Urethane (0.60 mL/kg, ip) and the trachea cannulated with PE 240. Either one femoral artery and both femoral veins or the carotid artery and the corresponding jugular vein are cannulated with PE 50. If the jugular vein is cannulated, two cannulas are placed in the one vein. The initial portion of the duodenum (just distal to the stomach) is cannulated with PE 50 via a small midline incision. Arterial pressure and heart rate are measured from the arterial cannula. Ten to 15 min are allowed following surgery for stabilization of arterial pressure. Ganglion blockade is then produced by intravenous administration of mecamylamine at 3 mg/kg (1 mL/kg of a 3 mg/mL solution). Ganglion blockade causes a fall in arterial pressure of about 50 mmHg. Mecamylamine is given every 90 min throughout the remainder of the experiment. An A II infusion is then begun into the other venous cannula at 0.25 µg/kg/min (at 9.6 µL/min). The A II infusion returns arterial pressure to or slightly above the control level. Once arterial pressure has stabilized with the A II infusion, baseline values for mean arterial pressure (MAP) and heart rate are taken. […]

[1] = metabolic studies in rats; type: in vivo
[2] = tested on: Goldblatt (2K-1C) hypertensive rat model; assay: Goldblatt (2K-1C) hypertensive rat model, antihypertensive action; type: in vivo, Sprague-Dawley rats
Experimental: In further accordance with their ability to antagonize angiotensin II, the compounds of this invention show antihypertensive action in the following Goldblatt (2K-1C) hypertensive rat model. Sprague-Dawley rats weighing 150 g were anesthetized with pentobarbital (50 mg/kg ip) and the left renal artery was clipped with a silver wire bent to an internal diameter of 0.2 mm. The hypertension was established 4-7 weeks after clipping. At that time, the animals were anesthetized with pentobarbital (50 mg/kg ip) and the right carotid artery was cannulated. The catheter was passed subcutaneously to the dorsal side of the neck and exteriorized. The animals were fasted overnight but allowed access to water and the experiment was performed the next morning. The carotid catheter was connected to a blood pressure transducer which was linked to a MI^2 computer data acquisition system or to a Grass or Beckman recorder for the recording of mean arterial pressure (MAP) and heart rate. For oral administration, the rats were given either a compound of the invention (1, 3 or 10 mg/kg), losartan (30 mg/kg) as a standard or vehicle (0.5% methyl cellulose in distilled water) by gastric gavage (ig) in a volume of 5 mL/kg. For intravenous administration, the rats were given either a compound of the invention (0.03, 0.1, 1, 3 or 10 mg/kg) or vehicle (≦50% NaHCO3 in distilled water) in a volume of 1 mL/kg. In all experiments, saline was infused into the arterial cannula at 5 µL/min throughout the experiment to maintain patency of the cannula. Each compound was administered to a separate group of 6-12 rats and MAP and heart rate were recorded for 24 h. […] At each time point following dosing, averages were determined for absolute MAP, change in MAP (in mm Hg), and heart rate for all animals, and the standard error of the mean was calculated.

SMILES	lowered the A II dependent blood pressure by an average of (A II-infused rat model)	identified as metabolite of the compound of Example 3 of U.S. Patent No. 5,149,599 [1]	presence of metabolite (duration and amount), Example 4 compared with Example 6 [1]	maximum decrease in MAP ([2]; 0.1 mg/kg iv, 4 hours post-administration)	maximum decrease in MAP ([2]; 10 mg/kg ig, 23 hours post-administration)	maximum decrease in MAP ([2]; 10 mg/kg ig, 9 hours post-administration)
Cc1nc(CO)nc2c1CCC(=O)N2Cc1ccc(-c2ccccc2-c2nnn[nH]2)cc1 [Example 2, 2-Hydroxymethyl-4-methyl-8-[2'-(1H-tetrazol-5-yl)biphenyl-4-ylmethyl]-5,8-dihydro-6H-pyrido[2,3-d]pyrimidin-7-one]	30%					
Cc1nc(C)c2c(O)cc(=O)n(Cc3ccc(-c4ccccc4-c4nnn[nH]4)cc3)c2n1 [Example 4, 2,4-Dimethyl-5-hydroxy-8-[2'-(1H-tetrazol-5-yl)biphenyl-4-ylmethyl]-8H-pyrido[2,3-d]pyrimidin-7-one Sesquihydrate]		significant metabolites	present significantly longer and in greater amounts than the latter	67 mm Hg	66 mm Hg	
Cc1nc(C)c2c(n1)N(Cc1ccc(-c3ccccc3-c3nn[nH]n3)cc1)C(=O)CC2O (stereo not shown) [Example 6, 5-Hydroxy-2,4-dimethyl-8-[2'-(1H-tetrazol-5-yl)-biphenyl-4-ylmethyl]-6,8-dihydro-5H-pyrido[2,3-d]pyrimidine-7-one Hydrate 0.4 Etherate]		significant metabolites				71 mm Hg
